Test results taken from patent publication US20180153830A1, “SELECTIVE INHIBITORS OF UNDIFFERENTIATED CELLS” (Yissum Research Development Company of the Hebrew …, priority 2012, published 2018).

Experiments:
Type in all cases: cell-based, human
[1] = test system: transformed BJ fibroblasts; assay: Methylene blue viability, transformed BJ fibroblasts; settings: up to 100 μM, 72 hours, 2% fetal bovine serum
Procedure: For the high-throughput screens, relative cell number was determined using a CellTiter-Glo® Luminescent Cell Viability Assay as described hereinabove. Otherwise, relative cell numbers were determined by fixating the cells with 0.5% glutardialdehyde and staining with methylene blue dissolved in 0.1 M boric acid (pH 8.5). Color extraction was performed using 0.1 M hydrochloric acid, and the staining (which is proportional to cell number) was quantified by measuring absorbance at a wavelength of 650 nm.
In one experiment, immortalized BJ fibroblasts served as differentiated cells and were compared with BJ fibroblasts induced to undergo cellular transformation, which served as their undifferentiated cancerous counterparts. […]
The differentiated and undifferentiated cells were exposed to PluriSIn #1 at concentrations of up to 100 μM for 72 hours under low (2%) fetal bovine serum conditions. Their viability was then measured using a methylene blue viability assay, as described hereinabove.

[2] = test system: protein synthesis in BJ fibroblasts; assay: 35S-Met metabolic labeling of protein synthesis, fibroblasts; settings: 12 hours, 20 μM
Procedure: H9 embryonic stem cells were seeded in Matrigel™ pre-coated 6-well tissue culture plates at a density of 2×10^5 cells/well, and cultured using mTeSR1 defined medium. BJ fibroblasts were seeded in 6-well tissue culture plate at the same density, and cultured with DMEM supplemented with 10% FBS, penicillin (50 U/ml) and streptomycin (50 μg/ml). Cells were treated for 12 hours with either 20 μM PluriSIn #1 (isonicotinic acid N′-phenylhydrazide) or with 0.2% DMSO. Cells were then washed with PBS, and replenished with methionine-deficient medium for 1 hour. Metabolic labeling of the cells was then performed for 1 hour with 10 μCi of […] methionine in 1 ml/well, in the presence of 20 μM PluriSIn #1 or 0.2% DMSO. Cells were washed with PBS containing 10 mM methionine, and were then lysed in 0.4 ml of 30% ice-cold trichloroacetic acid (TCA) containing 10 mM methionine for 15 minutes. […] Total protein concentration was determined using a Bradford Protein Assay (Sigma-Aldrich), and the radioactivity measurements were normalized accordingly. […]
The similarity between PSIs and PluriSIn #1 and #6 is consistent with the fact that UPR can lead to translational attenuation. In order to confirm this link, the effect of PluriSIn #1 treatment on protein synthesis was determined. […]

[3] = test system: caspase-3 in embryonic stem cells; assay: Immunoblotting for caspase-3; settings: 20 μM
Procedure: For immunoblotting, 10% polyacrylamide gel was used for protein separation and detection. The gel was transferred to a nitrocellulose membrane and antibody hybridization and chemiluminescence were performed according to standard procedures. The primary antibodies in this analysis were rabbit anti-phosphorylated-eIF2a (1:250, Cell Signaling Technology), rabbit anti caspase-3 (1:1,000, Cell Signaling Technology), mouse anti β-catenin (1:10,000, BD Biosciences) and mouse anti-α-tubulin (1:50,000, Sigma-Aldrich). Horseradish peroxidase-conjugated anti-rabbit and anti-mouse secondary antibodies were obtained from Jackson Immunoresearch Laboratories.
The finding of gene expression associated with apoptosis is consistent with previous reports that pluripotent cells are prone to apoptosis [Qin et al., Journal of Biological Chemistry 282:5842-5852 (2007); Momcilovic et al., PloS One 5:e13410 (2010)]. However, pluripotent cells have also been reported to be susceptible to other types of cell death, such as oncosis [Tan et al., Stem Cells 27:1792-1801 (2009)] and autophagy [Alexander et al., PNAS 108:15828-15833 (2011)]. An Annexin V-FITC detection assay and immunoblotting for caspase-3 (a hallmark executioner of apoptosis) were therefore used in order to confirm that the massive hPSC death induced by PluriSIn #1 is indeed apoptosis.

H9 stem cells = assay: Elimination of undifferentiated cells cultured in 6-well plates; settings: 20 μM
Source text: The PluriSIns were first tested in various culture conditions and exposure durations.

SMILES: O=C(NNc1ccccc1)c1ccncc1 [PluriSIn #1, isonicotinic acid N′-phenylhydrazide]
- cytotoxicity towards transformed BJ fibroblasts [1]: highly cytotoxic
- effect on protein synthesis, differentiated cells (fibroblasts) [2]: no effect
- activation of caspase-3 [3]: enhanced activation of caspase-3
- exposure required for complete elimination of undifferentiated cells (H9 stem cells): 48 h
